Data: US7700553B2, “Selective inhibition of NF-κB activation by peptides designed to disrupt nemo oligomerization” (priority 2003, dated 2010)
Ends that are not written are not given here. BODIPY = not defined here

Assays:
[1] = molecular target: T1, CC2 peptide composing the minimal oligomerization domain of NEMO (Mus musculus, UniProt O88522); experiment: Fluorescence anisotropy titration with CC2 peptide; type: binding, murine; conditions: in vitro, fluorescence polarization
T1 construct: SKGMQLEDLRQQLQQAEEA; made in house; host or cells: chemical solid-phase peptide synthesis (Fmoc/tBu), not expressed
T1 sequence (O88522 248-287): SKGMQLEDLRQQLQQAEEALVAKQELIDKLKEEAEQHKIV
Description: FIG. 7: Association of Ant-CC2 and Ant-LZ Peptides to the CC2 Peptide (A) Direct titration of BODIPY-Ant-CC2 (1 μM) with CC2 by fluorescence anitropy. The concentration of CC2 was determined by amino acid analysis. Anisotropy values of BODIPY-Ant-CC2 in milliunits (mA) were plotted against an increasing concentration of the CC2 peptide. […] The two dashed lines represent a stoichiometric titration and intersect at an CC2 concentration of […]. Given the 1 μM concentration of the BODIPY-Ant-CC2, this gives a complex stoechiometrie of 0.8. (B) Direct titration of BODIPY-Ant-LZ (0.1 μM with CC2 by fluorescence anitropy. The anisotropy values of the BODIPY-Ant-LZ alone (white bar) or in the presence of the CC2 peptide (30 μM, grey bar; 100 μM, black bar) are given in milliunits (mA).
Anisotropy measurements were performed with a PTI Quantamaster fluorometer equipped with polarizers for the excitation and emission beams. This instrument uses a PMT in the L-configuration. […] Steady-state fluorescence anisotropy was expressed as millianisotropy (mA) and was calculated according to the equations: (1) A=(IVV−GIVH)/(IVV+2GIVH); (2) G=IHV/IHH; where A is anisotropy, G is a correction factor for wavelength-dependent distortion and I is the fluorescence intensity component (subscript referring to the vertical and horizontal positioning at the excitation and emission polarizers, respectively). […]

[2] = test system: LPS-induced NF-κB activation in 70Z/3-C3 cells; experiment: NF-κB inhibition assay, first procedure (NF-κB dependent β-galactosidase reporter, LPS stimulation); type: cell-based, murine; conditions: 20 μM peptide; for effect on LPS-induced NF-κB activation (in words): 2 h, then 5 h LPS
Description: The resulting cell line, 70Z3-C3, was incubated for 2 hours in the absence or in the presence of 20 μM of antennapedia peptide (Ant), or BODIPY-labeled antennapedia peptide (BODIPY-Ant), or BODIPY-labeled antennapedia peptide coupled to CC2 (BODIPY-Ant-CC2) or LZ (BODIPY-Ant-LZ) peptides, After peptide internalization, cells were treated for 5 hours with LPS (3 μg/ml, (+) in left panel) or untreated (right panel and (−) in left panel) and the NF-κB activity was measured by β-galactosidase assay. […] Cells were treated as in (A) but with different concentration of peptide as indicated. The potential of each peptide to inhibit LPS-induced NF-κB activation was measured by determining the IC50 value that correspond to 50% inhibition of LPS-induced NF-κB activation as compared to the control (no peptide) (C). […] Control (no peptide) or CC2, or LZ peptides, with (BODIPY-ANT-CC2, BODIPY-ANT-LZ) or without the antennapedia sequence at the N-terminus (CC2, LZ) were incubated for 2 hours with 70Z3-C3 cells followed with (+) or without (−) the LPS-treatment for 3 hours. NF-κB activity was then measured by β-galactosidase assay.
In a first procedure 2.2×10^5 70Z/3-C3 cells in 220 μl of RPMI 1640 supplemented with 10% fetal calf serum (FCS) and 50 μM β-mercaptoethanol were placed in a 96-well plate and incubated with various concentrations of peptide (0 to 20 μM) at 37° C. in 5% CO2 incubator. After two hours an equal portion (100 μl) of each cell sample transferred in two wells containing each 10^5 cells. One aliquot of cells was then treated for 5 hours with lipopolysaccharides from Salmonella abortus (Sigma) at 0.5 μg/ml final concentration, and the other one left-treated. After 5 hours, cells were centrifuged at 400×g for 5 min at room temperature and the cell pellets were washed three times with cold PBS (250 μl) by centrifugation. Cells were then lysed in the lysis buffer (25 mM tris-phosphate buffer at pH 7.8 containing 8 mM magnesium chloride, 1 mM dithioerythreitol, 1% Triton X-100, 15% glycerol and a protease inhibitor mixture (Roche)), and samples were centrifuged at 4° C. for 20 min to clarify the lysate. The supernatant was then kept on ice, and 30 μl was then assayed to measure the β-galactosidase activity with a plate luminometer (Berthold) using the galacton-star as chemiluminescent substrate (BD Biosciences Clontech, Bronstein et al., 1989). Background of reaction was measured by mixing for 1 hour 30 μl of lysis buffer with the reaction buffer (196 μl) and the galacton-star substrate (4 μl) provided by BD Biosciences.

[3] = test system: LPS-induced NF-κB activation in 70Z/3-C3 cells; experiment: NF-κB inhibition assay, second more stringent procedure (peptide washed out, 24 h growth before LPS); type: cell-based, murine; conditions: 10 μM peptide
Source text: FIG. 4: Specific Inhibition of NF-κB Activation in Response to LPS Depends on a Few Mutations in the Hydrophobic Core of CC2 and LZ Coiled-Coils Left panels show a helical wheel diagram of CC2 (A) and LZ (B) peptides. The view is from the top the molecule. The (a) through (g) positions, which are an essential feature of coiled coil sequence (Vinson, 2002, Mol. Cell. Biol.) represent sequential positions in each peptide sequence. The first (a) and fourth (d) positions that are generally occupied by hydrophobic amino acids constitute the hydrophobic core for parallel as well as antiparallel-coiled coils. […] NF-κB activity was measured using the β-galactosidase assay. […]
FIG. 5: Inhibition of NF-κB Activation by the LZ Peptide Occurs Through the Formation of Specific Coiled-Coil Strands. […] NF-κB activity was measured using the β-galactosidase assay. […]

B-CRQIKIWFQNRRMKWKKLKAQADIYKADFQAERHAREKLVEKKEYLQEQLEQLQREFNKL (C(BODIPY)RQIKIWFQNRRMKWKKLKAQADIYKADFQAERHAREKLVEKKEYLQEQLEQLQREFNKL-NH2; not fully specified (N-terminus); reading uncertain) [BODIPY-Ant-LZ (WT)]
binding to the CC2 peptide (in words) [1]: binds in vitro to the CC2 peptide
effect on LPS-induced NF-κB activation (in words) [2]: decreased significantly the NF-κB activation
effect on LPS-induced NF-κB activation (in words) ([2]; listed as “Leucine zipper” peptide): completely eliminates cell response
basal NF-κB activity in the absence of LPS (in words) ([2]; no LPS): without affecting the intrinsic basal NF-κB activity

B-CRQIKIWFQNRRMKWKKLKAQADIYKADFQAERHAREKLVEKKEYSQEQLEQSQREFNKL (C(BODIPY)RQIKIWFQNRRMKWKKLKAQADIYKADFQAERHAREKLVEKKEYSQEQLEQSQREFNKL-NH2; not fully specified (N-terminus); printed as B-CRQIKIWFQNRRMKWKKLKAQADIYKADFQAERHAREKLVEKKEYSQEQLEQSQREFNKL; reading uncertain) [BODIPY-Ant-LZ (Mu)]
inhibition of LPS-induced NF-κB activation compared to the control [3]: 15%

B-CRQIKIWFQNRRMKWKKSKGMQLEDLRQQGQQAEEAGVAKQELGDKLKEEAEQHKIV (C(BODIPY)RQIKIWFQNRRMKWKKSKGMQLEDLRQQGQQAEEAGVAKQELGDKLKEEAEQHKIV-NH2; not fully specified (N-terminus); printed as B-CRQIKIWFQNRRMKWKKSKGMQLEDLRQQGQQAEEAGVAKQELGDKLKEEAEQHKIV; reading uncertain) [BODIPY-Ant-CC2 (Mu)]
effect on LPS-induced NF-κB activation (in words) [3]: did not affect the NF-κB activation
